Laboratory results: the NIST ThermoML archive (doi:10.1016/j.jct.2011.10.013)

What was measured:
[1] = for surface tension liquid-gas: Dataphysics DCAT21 digital tensiometer; for mass density: Liquid, Vibrating tube method
[2] = xn = mol fraction of the nth substance listed; details: 298.15 K; for surface tension liquid-gas: Dataphysics DCAT21 digital tensiometer; for mass density: 101 kPa, Liquid, Vibrating tube method

CCCCCCCC[n+]1ccccc1.O=[N+]([O-])[O-] [1-octylpyridinium nitrate]
[1]
Details	surface tension liquid-gas [mN/m]
293.15 K	36.12
298.15 K	35.76
303.15 K	35.5
308.15 K	35.18
313.15 K	34.76
318.15 K	34.48
323.15 K	34.12
328.15 K	33.78

[1], 101.33 kPa
Details	mass density [kg/m3]
293.15 K	1093.5
298.15 K	1089.5
303.15 K	1084.2
308.15 K	1078.6
313.15 K	1073.4
318.15 K	1068.6
323.15 K	1063.8
328.15 K	1059.7

CCCCCCCC[n+]1ccccc1.O=[N+]([O-])[O-] [1-octylpyridinium nitrate] + CCCCO
[2]
Details	mass density [kg/m3]	surface tension liquid-gas [mN/m]
x1 = 0.1245	875.3	25.17
x1 = 0.2008	910	25.84
x1 = 0.3038	948.6	26.35
x1 = 0.4019	978.1	26.92
x1 = 0.5012	1002	27.53
x1 = 0.6025	1023	–
x1 = 0.701	1041.7	–
x1 = 0.8005	1059	–
x1 = 0.899	1074.9	–
x1 = 1	1089.5	–

CCCCCCCC[n+]1ccccc1.O=[N+]([O-])[O-] [1-octylpyridinium nitrate] + CCO
[2]
Details	mass density [kg/m3]	surface tension liquid-gas [mN/m]
x1 = 0.2	939.3	26.44
x1 = 0.3035	981.4	27.83
x1 = 0.4063	1011.5	28.74
x1 = 0.5087	1034.2	29.75
x1 = 0.5903	1048.5	–
x1 = 0.7456	1069.4	–
x1 = 0.791	1073.9	–
x1 = 0.876	1081.5	–
x1 = 1	1089.5	–

CCCCCCCC[n+]1ccccc1.O=[N+]([O-])[O-] [1-octylpyridinium nitrate] + CO
[2]
Details	mass density [kg/m3]	surface tension liquid-gas [mN/m]
x1 = 0.1026	910.2	27.4
x1 = 0.2063	974.3	30.11
x1 = 0.3072	1011.3	30.78
x1 = 0.4225	1038.4	32
x1 = 0.5067	1052.6	–
x1 = 0.6067	1065	–
x1 = 0.8534	1084.4	–
x1 = 0.936	1087.5	–
x1 = 1	1089.5	–

CCCCO [butan-1-ol]
Details	surface tension liquid-gas [mN/m]
[1], 298.15 K	23.67

Details	mass density [kg/m3]
[1], 298.15 K, 101 kPa	805.6

CCCCO [butan-1-ol] + CCCCCCCC[n+]1ccccc1.O=[N+]([O-])[O-]
[2], x2 = 0
Details	mass density [kg/m3]	surface tension liquid-gas [mN/m]
–	805.6	23.67

CCO [ethanol]
Details	surface tension liquid-gas [mN/m]
[1], 298.15 K	21.55

Details	mass density [kg/m3]
[1], 298.15 K, 101 kPa	784.8

CCO [ethanol] + CCCCCCCC[n+]1ccccc1.O=[N+]([O-])[O-]
[2], x2 = 0
Details	mass density [kg/m3]	surface tension liquid-gas [mN/m]
–	784.8	21.55

CO [methanol]
Details	surface tension liquid-gas [mN/m]
[1], 298.15 K	22.09

Details	mass density [kg/m3]
[1], 298.15 K, 101 kPa	785.3

CO [methanol] + CCCCCCCC[n+]1ccccc1.O=[N+]([O-])[O-]
[2], x2 = 0
Details	mass density [kg/m3]	surface tension liquid-gas [mN/m]
–	785.3	22.09
